{"source": "patent US11046658B2", "about": "“Aminopyrazine derivatives as PI3K-γ inhibitors” (Incyte Corporation, priority 2018, dated 2021)", "test_system": "Phosphorylated Ribosomal Protein S6 (RPS6) in THP-1 cells", "assay": "THP-1 RPS6 ELISA Assay", "assay_type": "cell-based, Human", "conditions": "Homo sapiens", "method": "To measure the Phosphorylated Ribosomal Protein S6 (RPS6) in cell lysates, THP-1 cells (Human Acute Monocytic Leukemia) are purchased from ATCC (Manassas, Va.) and maintained in RPMI with 10% FBS (Gibco/Life Technologies, Carlsbad, Calif.). For the assay, THP-1 cells are serum starved overnight in RPMI, then plated in RPMI (2×10^5 cells/well in 90 μL) into 96-well flat-bottom tissue culture treated plates (Corning, Corning, N.Y.), in the presence or absence of a concentration range of test compounds. Covered plates are incubated for 2 hours at 37° C., 5% CO2 then treated with or without 10 nM MCP-1(MYBioSource, San Diego, Calif.) for 15 minutes at 37° C., 5% CO2. Plates are centrifuged at 1600 RPM and supernatants are removed. Cells are lysed in Lysis Buffer (Cell Signaling, Danvers, Mass.) with Protease Inhibitor (Calbiochem/EMD, Germany), PMSF (Sigma, St Louis Mo.), HALTS (Thermo Fisher, Rockford, Ill.) for 30 min on wet ice. Cell lysates are frozen at −80 OC before testing. The lysates are tested in the Human/Mouse/Rat Phospho-RPS6 ELISA (R&D Systems, Inc. Minn, Minn.). The plate is measured using a microplate reader (SpectraMax M5—Molecular Devices, LLC Sunnyvale, Calif.) set to 450 nm with a wavelength correction of 540. IC50 determination is performed by fitting the curve of inhibitor percent inhibition versus the log of the inhibitor concentration using the GraphPad Prism 5.0 software.", "key": {"[1]": {"conditions": "Table A3, THP-1 cells, 10 nM MCP-1, read-out: PI3Kγ_THP1_RPS6_ELISA IC50"}, "[2]": {"conditions": "Table A1, THP-1 cells, 10 nM MCP-1, read-out: PI3Kγ_THP1_RPS6_ELISA IC50"}, "[3]": {"conditions": "Table A4, THP-1 cells, 10 nM MCP-1, cells given with + symbol, read-out: PI3Kγ_THP1_RPS6_ELISA IC50"}, "[4]": {"conditions": "Table A2, THP-1 cells, 10 nM MCP-1, read-out: PI3Kγ_THP1_RPS6_ELISA IC50"}}, "note": "Structures can show the parent of a compound that is named as a salt. Where two headings read alike, the source gives them in different places."}
{"smiles": "Cc1ccc(C(O)(C(N)=O)C(F)(F)F)cc1-c1cnc(N)c(N2CCN(C(=O)c3ccco3)CC2)n1", "note": "(stereo not shown) [Example 127, 2-(3-(5-amino-6-(4-(furan-2-carbonyl)piperazin-1-yl)pyrazin-2-yl)-4-methylphenyl)-3,3,3-trifluoro-2-hydroxypropanamide trifluoroacetate]", "values": [{"measurement": "IC50", "setting": "THP-1, read-out: PI3Kγ_THP1_RPS6_ELISA IC50 (nM)", "value": "< 100", "unit": "nM"}]}
{"smiles": "Cc1ccc(C(O)(C(N)=O)C(F)(F)F)cc1-c1cnc(N)c(-c2ccc(CO)cc2)n1", "note": "(stereo not shown) [Example 88, 2-(3-(5-amino-6-(4-(hydroxymethyl)phenyl)pyrazin-2-yl)-4-methylphenyl)-3,3,3-trifluoro-2-hydroxypropanamide trifluoroacetate]", "values": [{"measurement": "IC50", "setting": "[1]", "value": "< 500", "unit": "nM"}]}
{"smiles": "Cc1ccc(C(O)(C(N)=O)C(F)(F)F)cc1-c1cnc(N)c(C(=O)N2CCC2(C)C)n1", "note": "(stereo not shown) [Example 27, 2-(3-(5-amino-6-(2,2-dimethylazetidine-1-carbonyl)pyrazin-2-yl)-4-methylphenyl)-3,3,3-trifluoro-2-hydroxypropanamide]", "values": [{"measurement": "IC50", "setting": "[2]", "value": "< 100", "unit": "nM"}]}
{"smiles": "Cc1ccc([C@@](O)(C(N)=O)C(F)(F)F)cc1-c1cnc(N)c(N2CCN(C(=O)C3CC3)CC2)n1", "note": "[Example 115, (R)-2-(3-(5-amino-6-(4-(cyclopropanecarbonyl)piperazin-1-yl)pyrazin-2-yl)-4-methylphenyl)-3,3,3-trifluoro-2-hydroxypropanamide trifluoroacetate]", "values": [{"measurement": "IC50", "setting": "[3]", "value": "< 100", "unit": "nM"}]}
{"smiles": "Cc1ccc(C(O)(C(N)=O)C(F)(F)F)cc1-c1cnc(N)c(N2CCN(c3ccc(C#N)cc3)CC2)n1", "note": "(stereo not shown) [Example 123, 2-(3-(5-amino-6-(4-(4-cyanophenyl)piperazin-1-yl)pyrazin-2-yl)-4-methylphenyl)-3,3,3-trifluoro-2-hydroxypropanamide trifluoroacetate]", "values": [{"measurement": "IC50", "setting": "Table A4, THP-1 cells, 10 nM MCP-1, read-out: PI3Kγ_THP1_RPS6_ELISA IC50", "value": "< 500", "unit": "nM"}]}
{"smiles": "Cc1ccc(C(O)(C(N)=O)C(F)(F)F)cc1-c1cnc(N)c(C#CC2CCOCC2)n1", "note": "(stereo not shown) [Example 63, 2-(3-(5-amino-6-((tetrahydro-2H-pyran-4-yl)ethynyl)pyrazin-2-yl)-4-methylphenyl)-3,3,3-trifluoro-2-hydroxypropanamide]", "values": [{"measurement": "IC50", "setting": "[4]", "value": "< 100", "unit": "nM"}]}
{"smiles": "Cc1ccc(C(O)(C(N)=O)C(F)(F)F)cc1-c1cnc(N)c(N2CCN(c3cncs3)CC2)n1", "note": "(stereo not shown) [Example 120, 2-(3-(5-amino-6-(4-(thiazol-5-yl)piperazin-1-yl)pyrazin-2-yl)-4-methylphenyl)-3,3,3-trifluoro-2-hydroxypropanamide trifluoroacetate]", "values": [{"measurement": "IC50", "setting": "[3]", "value": "< 100", "unit": "nM"}]}
{"smiles": "Cc1ccc(C(O)(C(N)=O)C(F)(F)F)cc1-c1cnc(N)c(C(=O)NCCC#N)n1", "note": "(stereo not shown) [Example 14, 3-amino-6-(5-(3-amino-1,1,1-trifluoro-2-hydroxy-3-oxopropan-2-yl)-2-methylphenyl)-N-(2-cyanoethyl)pyrazine-2-carboxamide trifluoroacetate]", "values": [{"measurement": "IC50", "setting": "[2]", "value": "< 100", "unit": "nM"}]}
{"smiles": "Cc1ncc(-c2nc(-c3cc(C(O)(C(N)=O)C(F)F)ccc3C)cnc2N)o1", "note": "(stereo not shown) [Example 100, 2-(3-(5-amino-6-(2-methyloxazol-5-yl)pyrazin-2-yl)-4-methylphenyl)-3,3-difluoro-2-hydroxypropanamide]", "values": [{"measurement": "IC50", "setting": "[1]", "value": "< 100", "unit": "nM"}]}
{"smiles": "Cc1ccc(C(O)(C(N)=O)C(F)(F)F)cc1-c1cnc(N)c(C#Cc2cnn(C)c2)n1", "note": "(stereo not shown) [Example 54, 2-(3-(5-amino-6-((1-methyl-1H-pyrazol-4-yl)ethynyl)pyrazin-2-yl)-4-methylphenyl)-3,3,3-trifluoro-2-hydroxypropanamide]", "values": [{"measurement": "IC50", "setting": "[4]", "value": "< 100", "unit": "nM"}]}
{"smiles": "Cc1ccc(C(O)(C(N)=O)C(F)F)cc1-c1cnc(N)c(C(=O)NCCC2CCOC2)n1", "note": "(stereo not shown) [Example 37, 3-amino-6-(5-(1-amino-3,3-difluoro-2-hydroxy-1-oxopropan-2-yl)-2-methylphenyl)-N-(2-(tetrahydrofuran-3-yl)ethyl)pyrazine-2-carboxamide]", "values": [{"measurement": "IC50", "setting": "[2]", "value": "< 100", "unit": "nM"}]}
{"smiles": "Cc1ccc(C(O)(C(N)=O)C(F)(F)F)cc1-c1cnc(N)c(C(=O)N[C@H]2CCCOC2)n1", "note": "(stereo partly drawn) [Example 10, 3-amino-6-(5-(3-amino-1,1,1-trifluoro-2-hydroxy-3-oxopropan-2-yl)-2-methylphenyl)-N-((S)-tetrahydro-2H-pyran-3-yl)pyrazine-2-carboxamide trifluoroacetate]", "values": [{"measurement": "IC50", "setting": "[2]", "value": "< 100", "unit": "nM"}]}
{"smiles": "Cc1ccc(C(O)(C(N)=O)C(F)(F)F)cc1-c1cnc(N)c(-c2cnc(C3CC3)s2)n1", "note": "(stereo not shown) [Example 84, 2-(3-(5-amino-6-(2-cyclopropylthiazol-5-yl)pyrazin-2-yl)-4-methylphenyl)-3,3,3-trifluoro-2-hydroxypropanamide trifluoroacetate]", "values": [{"measurement": "IC50", "setting": "[1]", "value": "< 500", "unit": "nM"}]}
{"smiles": "Cc1ccc(C(O)(C(N)=O)C(F)(F)F)cc1-c1cnc(N)c(C(=O)NCC(C)(C)O)n1", "note": "(stereo not shown) [Example 1, 3-Amino-6-(5-(3-amino-1,1,1-trifluoro-2-hydroxy-3-oxopropan-2-yl)-2-methylphenyl)-N-(2-hydroxy-2-methylpropyl)pyrazine-2-carboxamide]", "values": [{"measurement": "IC50", "setting": "[2]", "value": "< 100", "unit": "nM"}]}
{"smiles": "Cc1ccc(C(O)(C(N)=O)C(F)(F)F)cc1-c1cnc(N)c(C#CC(C)(O)C(C)C)n1", "note": "(stereo not shown) [Example 62, 2-(3-(5-amino-6-(3-hydroxy-3,4-dimethylpent-1-ynyl)pyrazin-2-yl)-4-methylphenyl)-3,3,3-trifluoro-2-hydroxypropanamide]", "values": [{"measurement": "IC50", "setting": "[4]", "value": "< 100", "unit": "nM"}]}
{"smiles": "Cc1ccc(C(O)(CNC(=O)CC#N)C(F)(F)F)cc1-c1cnc(N)c(C(=O)NC(C)C)n1", "note": "(stereo not shown) [Example 42, 3-Amino-6-(5-(3-(2-cyanoacetamido)-1,1,1-trifluoro-2-hydroxypropan-2-yl)-2-methylphenyl)-N-isopropylpyrazine-2-carboxamide trifluoroacetate]", "values": [{"measurement": "IC50", "setting": "[2]", "value": "< 500", "unit": "nM"}]}
{"smiles": "Cc1ccc(C(O)(C(N)=O)C(F)(F)F)cc1-c1cnc(N)c(C#Cc2ccn[nH]2)n1", "note": "(stereo not shown) [Example 52, 2-(3-(6-((1H-pyrazol-5-yl)ethynyl)-5-aminopyrazin-2-yl)-4-methylphenyl)-3,3,3-trifluoro-2-hydroxypropanamide]", "values": [{"measurement": "IC50", "setting": "[4]", "value": "< 500", "unit": "nM"}]}
{"smiles": "Cc1ccc(C(O)(C(N)=O)C(F)F)cc1-c1cnc(N)c(-c2ccnn2C)n1", "note": "(stereo not shown) [Example 98, 2-(3-(5-Amino-6-(1-methyl-1H-pyrazol-5-yl)pyrazin-2-yl)-4-methylphenyl)-3,3-difluoro-2-hydroxypropanamide]", "values": [{"measurement": "IC50", "setting": "[1]", "value": "< 100", "unit": "nM"}]}
{"smiles": "CC(=O)NCC(O)(c1ccc(C)c(-c2cnc(N)c(-c3cn[nH]c3)n2)c1)C(F)(F)F", "note": "(stereo not shown) [Example 105, N-(2-(3-(5-amino-6-(1H-pyrazol-4-yl)pyrazin-2-yl)-4-methylphenyl)-3,3,3-trifluoro-2-hydroxypropyl)acetamide trifluoroacetate]", "values": [{"measurement": "IC50", "setting": "[1]", "value": "< 100", "unit": "nM"}]}
{"smiles": "CC(=O)N1CCN(c2nc(-c3cc(C(O)(C(N)=O)C(F)(F)F)ccc3C)cnc2N)CC1", "note": "(stereo not shown) [Example 114, 2-(3-(6-(4-acetylpiperazin-1-yl)-5-aminopyrazin-2-yl)-4-methylphenyl)-3,3,3-trifluoro-2-hydroxypropanamide trifluoroacetate]", "values": [{"measurement": "IC50", "setting": "[3]", "value": "< 100", "unit": "nM"}]}
{"smiles": "Cc1ccc(C(O)(C(N)=O)C(F)(F)F)cc1-c1cnc(N)c(-c2ccnn2C)n1", "note": "(stereo not shown) [Example 69, 2-(3-(5-Amino-6-(1-methyl-1H-pyrazol-5-yl)pyrazin-2-yl)-4-methylphenyl)-3,3,3-trifluoro-2-hydroxypropanamide trifluoroacetate]", "values": [{"measurement": "IC50", "setting": "[1]", "value": "< 100", "unit": "nM"}]}
{"smiles": "Cc1ccc(C(O)(C(N)=O)C(F)(F)F)cc1-c1cnc(N)c(C#Cc2ccc(C#N)cc2)n1", "note": "(stereo not shown) [Example 58, 2-(3-(5-amino-6-((4-cyanophenyl)ethynyl)pyrazin-2-yl)-4-methylphenyl)-3,3,3-trifluoro-2-hydroxypropanamide]", "values": [{"measurement": "IC50", "setting": "[4]", "value": "< 100", "unit": "nM"}]}
